Assay [1] addresses T1, hAR (human androgen receptor) (Homo sapiens, UniProt P10275).
T1 construct: made in house; host or cells: baculovirus/Sf9 insect cells
T1 sequence (P10275 1-920): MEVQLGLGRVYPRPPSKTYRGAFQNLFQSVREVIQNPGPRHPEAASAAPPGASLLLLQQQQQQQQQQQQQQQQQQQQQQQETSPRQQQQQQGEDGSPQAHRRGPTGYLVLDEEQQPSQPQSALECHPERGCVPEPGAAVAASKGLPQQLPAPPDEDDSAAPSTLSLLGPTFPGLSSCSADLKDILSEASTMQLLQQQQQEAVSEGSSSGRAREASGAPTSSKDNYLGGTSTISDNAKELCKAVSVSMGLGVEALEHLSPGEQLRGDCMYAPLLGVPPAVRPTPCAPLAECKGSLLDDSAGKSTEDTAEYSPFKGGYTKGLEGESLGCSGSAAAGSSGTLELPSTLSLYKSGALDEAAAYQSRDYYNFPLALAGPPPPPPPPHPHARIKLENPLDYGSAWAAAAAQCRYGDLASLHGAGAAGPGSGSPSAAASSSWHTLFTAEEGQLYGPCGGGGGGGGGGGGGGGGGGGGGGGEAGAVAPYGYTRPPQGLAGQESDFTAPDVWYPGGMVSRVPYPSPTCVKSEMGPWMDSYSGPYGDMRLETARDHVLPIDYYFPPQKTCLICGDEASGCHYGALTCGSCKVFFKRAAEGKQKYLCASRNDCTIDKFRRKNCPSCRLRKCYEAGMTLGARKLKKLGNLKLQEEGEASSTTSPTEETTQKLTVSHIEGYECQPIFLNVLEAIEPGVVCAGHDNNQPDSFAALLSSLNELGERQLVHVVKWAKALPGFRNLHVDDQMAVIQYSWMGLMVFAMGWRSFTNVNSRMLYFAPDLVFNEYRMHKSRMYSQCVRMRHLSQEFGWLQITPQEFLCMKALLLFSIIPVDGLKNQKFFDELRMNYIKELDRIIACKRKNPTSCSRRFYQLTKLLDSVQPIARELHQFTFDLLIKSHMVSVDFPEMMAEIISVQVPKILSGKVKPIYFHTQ
Put plainly: Competitive binding analysis on baculovirus/Sf9 generated hAR extracts with 3H-DHT tracer. As for the experimental part:
The description below describes how the assay was carried out.
Competitive binding analysis was performed on baculovirus/Sf9 generated hAR extracts in the presence or absence of different concentrations of test agent and a fixed concentration of ^3H-dihydrotestosterone (^3H-DHT) as tracer. This binding assay method is a modification of a protocol previously described (Liao S., et. al. J. Steroid Biochem. 20:11-17 1984). Briefly, progressively decreasing concentrations of compounds are incubated in the presence of hAR extract (Chang et al. P.N.A.S. Vol. 89, pp. 5546-5950,1992), hydroxylapatite, and 1 nM ^3 H-DHT for one hour at 4° C. Subsequently, the binding reactions are washed three times to completely remove excess unbound ^3 H-DHT. hAR bound ^3H-DHT levels are determined in the presence of compounds (=i.e competitive binding) and compared to levels bound when no competitor is present (=i.e. maximum binding). Compound binding affinity to the hAR is expressed as the concentration of compound at which one half of the maximum binding is inhibited.

In assay [2] the target is T2, androgen receptor (Homo sapiens, UniProt P10275).
T2 sequence (P10275 1-920 Q868H): T1 sequence (P10275 1-920) with Q868H
Put plainly: AR antagonist cell assay, MDA-MB453-MMTV clone 54-19 luciferase reporter. It counts as cell-based. The following applies: read-out: AR Cell IC50; MDA-MB453-MMTV clone 54-19, 100 pM DHT, 17 hr; mean of multiple tests. As for the experimental part: The compounds ability to antagonize the effects of androgen on the androgen receptor were determined in a whole cell assay as described immediately below.
This cell line is a stable transfected cell line with MDA-MB453 cell background (a human breast tumor cell line expressing androgen receptor). A MMTV minimal promoter containing ARE was first cloned in front of a firefly luciferase reporter gene. Then the cascade was cloned into transfection vector pUV120puro. Electroporation method was used for transfecting MDA-MB-453 cell. Puromycin resistant stable cell line was selected.
• 1. Cells are maintained in culture medium, splitting cells when they reach 80-90% confluence • 2. To test compounds, 10,000 cells/well are plated to opaque 96 cell culture plate in 100 ul/well plating medium, culture for overnight at 37° C. in cell culture incubator • 3. Carefully remove plating medium, then add 80 ul/well of pre-warmed assay medium, add 10 ul/well testing compound (final concentration at) 1000 nM, 200 nM, 40 nM, 8 nM, 1.6 nM, and 0.32 nM), incubate at 37° C. for 30 minutes • 4. Add 10 ul/well freshly prepared DHT (final concentration at 100 pM) to each well, incubate at 37° C. for 17 hr (overnight) • 5.
The results are reported as the mean of multiple tests as described below (the numbers of tests are indicated in the footnote). N.D. denotes that the compound was not tested.

Assay [3] has as its system Male C3H/HeN mice. Put plainly: Modified telogen conversion assay (hair growth, induction of anagen). It counts as in vivo. The following applies: test concentration of 3% w/v, topical. The text has this: It has been discovered that male C3H/HeN mice may be used in the telogen conversion assay, when evaluating anti-androgen test compounds. Thus, the model relates to a modification of the existing telogen conversion assay. Male C3H/HeN mice approximately 7 weeks old are utilized. These animals are also uniformly in telogen, like their female counterparts. However, once shaven, the androgens inherently present in these male mice inhibit the conversion of the hair follicles to the anagen phase. An anti-androgen will block this androgenic effect and the follicles will convert to anagen, like their female counterparts.
Male C3H/HeN mice, 6 to 7 weeks old (Charles River Laboratories, Raleigh, N.C.) were used for the study. Fur was clipped from the dorsal region of the mice prior to initiation of the study. Only mice with pink skin, a visual indication of the telogen phase, were selected for inclusion in the study.
The test compound was dissolved in a vehicle consisting of propylene glycol (30%) and ethanol (70%) to achieve a concentration of either 0.2% w/v, 0.5% w/v, 1% w/v or 3% w/v. The relevant dose was applied topically to the clipped dorsal region of the mice in one test group (7-10 mice) in a volume of 20 μl/cm^2. A third group of animals received only the vehicle to serve as a control. Treatments were applied twice daily for 4 weeks.
The treatment area was observed and graded every other day for signs of hair growth. The hair growth response was quantified by recording, for each animal, the day on which signs of hair growth first appeared over the treated area. The first sign of anagen was the darkening of skin color as melanocytes in the follicles started to synthesize melanin in preparation for the production of pigmented hairs. […] The percentage of mice showing signs of hair growth in both the treatment group and the control group is graphically depicted in FIG. 1.

The conditions of assay [4]: after 7 years of treatment; cited from earlier work.

A word on the pIC50: it is −log10 of the IC50, conventionally taken in molar units.

Numbering of substitutions follows the chain as printed. pIC50: −log10 of the molar value.

On to `CC(C)C(O)C(C)(C)COc1ccc(C#N)c(Cl)c1` (stereo not shown) [Example 27, 2-Chloro-4-(3-Hy-droxy-2,2,4-trimethyl-pentyloxy)-benzonitrile], for which the negative-log IC50 (pIC50) in assay [1] was 7.20; in assay [2], 10.40. In addition, in assay [3], the “rate of hair growth versus vehicle control” value is “did not exceed that of the vehicle control”.
Regarding `NCCCC(O)(P(=O)(O)O)P(=O)(O)O` [alendronate], in assay [4], the “increase in spinal BMD” value is recorded as at most 11%.

(Values after patent publication US7576128B2 (priority 2004, dated 2009).)
